Source: ChEMBL document CHEMBL2216752, “Carnitine palmitoyltransferase (CPT) modulators: a medicinal chemistry perspective on 35 years of research” (J Med Chem, 2011)

What was measured:
[1] = target: T1, Mitochondrial carnitine/acylcarnitine carrier protein (Homo sapiens, UniProt O43772); experiment: Inhibition of CACT
T1 sequence (O43772 whole entry): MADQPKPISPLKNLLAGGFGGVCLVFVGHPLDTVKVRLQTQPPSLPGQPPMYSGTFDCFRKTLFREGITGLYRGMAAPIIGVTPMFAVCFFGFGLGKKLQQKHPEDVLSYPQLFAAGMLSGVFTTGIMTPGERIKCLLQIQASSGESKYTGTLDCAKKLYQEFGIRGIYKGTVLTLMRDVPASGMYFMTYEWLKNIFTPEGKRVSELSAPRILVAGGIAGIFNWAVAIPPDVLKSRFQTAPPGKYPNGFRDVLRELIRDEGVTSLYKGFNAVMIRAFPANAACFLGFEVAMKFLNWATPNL

[2] = Inhibition of carnitine palmitoyltransferase in rat liver mitochondria assessed as conversion of [14C]palmitic acid to [14C]palmitoylcarnitine by radiometric assay
[3] = Critical micelle concentration of compound; type: physicochemical
[4] = Inhibition of carnitine palmitoyltransferase in rat heart mitochondria assessed as conversion of [14C]palmitic acid to [14C]palmitoylcarnitine by radiometric assay
[5] = test system: Mus musculus; experiment: Reduction in glucose level in db/db mouse at 30 mg/kgl/day, po for 12 days; type: functional; design: scale not given: the % may be the effect or the level left; details: dose 30 mg/kg
[6] = target: T2, Carnitine O-palmitoyltransferase 2, mitochondrial (Rattus norvegicus, UniProt P18886); experiment: Inhibition of rat CPT2
T2 sequence (P18886 whole entry): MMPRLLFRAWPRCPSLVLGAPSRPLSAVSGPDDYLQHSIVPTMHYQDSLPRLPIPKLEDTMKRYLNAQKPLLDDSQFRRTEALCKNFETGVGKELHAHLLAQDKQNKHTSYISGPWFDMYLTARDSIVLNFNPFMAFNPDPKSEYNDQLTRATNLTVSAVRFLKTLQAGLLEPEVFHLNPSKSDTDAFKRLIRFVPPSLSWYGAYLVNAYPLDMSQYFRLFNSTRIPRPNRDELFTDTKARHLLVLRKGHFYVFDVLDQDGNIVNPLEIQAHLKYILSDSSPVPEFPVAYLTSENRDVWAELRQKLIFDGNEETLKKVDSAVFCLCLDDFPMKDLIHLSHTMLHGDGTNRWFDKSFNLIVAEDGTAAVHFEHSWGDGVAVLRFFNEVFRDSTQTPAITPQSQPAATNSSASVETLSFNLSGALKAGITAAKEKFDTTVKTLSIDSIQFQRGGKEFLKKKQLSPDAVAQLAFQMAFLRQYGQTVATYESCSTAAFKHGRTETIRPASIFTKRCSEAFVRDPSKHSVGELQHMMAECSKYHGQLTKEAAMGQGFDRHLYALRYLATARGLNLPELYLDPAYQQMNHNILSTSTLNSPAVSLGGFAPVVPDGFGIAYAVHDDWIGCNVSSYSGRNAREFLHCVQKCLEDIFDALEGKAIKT

[7] = target: T3, Carnitine O-palmitoyltransferase 1, muscle isoform (Homo sapiens, UniProt Q92523); experiment: Inhibition of human CPT1B
T3 sequence (Q92523 whole entry): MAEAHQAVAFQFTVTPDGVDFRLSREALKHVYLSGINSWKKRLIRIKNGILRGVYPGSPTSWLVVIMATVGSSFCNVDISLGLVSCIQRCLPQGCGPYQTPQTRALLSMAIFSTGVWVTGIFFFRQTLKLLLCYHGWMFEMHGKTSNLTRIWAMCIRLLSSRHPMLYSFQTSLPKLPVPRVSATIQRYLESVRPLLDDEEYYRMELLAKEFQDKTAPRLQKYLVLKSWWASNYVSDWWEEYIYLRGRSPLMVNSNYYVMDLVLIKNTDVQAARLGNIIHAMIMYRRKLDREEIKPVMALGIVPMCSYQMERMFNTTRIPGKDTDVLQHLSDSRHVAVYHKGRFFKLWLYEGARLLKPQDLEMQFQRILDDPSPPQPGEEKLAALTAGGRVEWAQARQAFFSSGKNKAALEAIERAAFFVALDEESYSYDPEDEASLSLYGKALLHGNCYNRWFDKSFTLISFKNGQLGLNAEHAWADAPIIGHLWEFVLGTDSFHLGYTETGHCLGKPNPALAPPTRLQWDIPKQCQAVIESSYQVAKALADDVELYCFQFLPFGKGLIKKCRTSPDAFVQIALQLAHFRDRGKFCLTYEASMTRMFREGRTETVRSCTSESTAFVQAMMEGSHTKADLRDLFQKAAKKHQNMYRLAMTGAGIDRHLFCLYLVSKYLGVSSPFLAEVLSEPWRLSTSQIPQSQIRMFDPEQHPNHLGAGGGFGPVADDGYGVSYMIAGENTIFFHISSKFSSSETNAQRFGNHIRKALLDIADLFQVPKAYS

[8] = target: T4, Carnitine O-palmitoyltransferase 1, liver isoform (Rattus norvegicus, UniProt P32198); experiment: Inhibition of rat CPT1A using [3H]carnitine by radiometric assay
T4 sequence (P32198 whole entry): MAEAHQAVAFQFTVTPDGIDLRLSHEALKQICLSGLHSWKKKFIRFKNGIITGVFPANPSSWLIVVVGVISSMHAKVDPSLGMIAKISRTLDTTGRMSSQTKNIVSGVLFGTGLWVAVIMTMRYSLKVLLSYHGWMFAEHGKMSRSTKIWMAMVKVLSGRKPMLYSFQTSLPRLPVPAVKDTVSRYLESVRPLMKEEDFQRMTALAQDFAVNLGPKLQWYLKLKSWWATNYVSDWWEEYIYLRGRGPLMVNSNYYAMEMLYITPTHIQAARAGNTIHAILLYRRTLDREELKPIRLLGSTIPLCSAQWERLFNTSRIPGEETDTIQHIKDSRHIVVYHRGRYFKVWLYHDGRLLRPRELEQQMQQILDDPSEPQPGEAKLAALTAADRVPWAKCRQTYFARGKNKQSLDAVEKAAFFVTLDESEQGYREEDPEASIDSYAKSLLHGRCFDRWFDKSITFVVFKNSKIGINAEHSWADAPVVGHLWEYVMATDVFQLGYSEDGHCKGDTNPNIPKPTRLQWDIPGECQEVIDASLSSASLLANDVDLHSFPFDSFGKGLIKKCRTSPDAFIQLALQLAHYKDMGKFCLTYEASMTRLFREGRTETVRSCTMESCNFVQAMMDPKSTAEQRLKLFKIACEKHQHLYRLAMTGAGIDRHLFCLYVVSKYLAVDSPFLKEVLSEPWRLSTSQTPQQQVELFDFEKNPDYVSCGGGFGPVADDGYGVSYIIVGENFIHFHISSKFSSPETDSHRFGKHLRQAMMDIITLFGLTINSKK

[9] = target: T2, Carnitine O-palmitoyltransferase 2, mitochondrial; experiment: Inhibition of rat CPT2 using [3H]carnitine by radiometric assay
[10] = target: T5, Carnitine O-palmitoyltransferase 2, mitochondrial (Homo sapiens, UniProt P23786); experiment: Inhibition of human CPT2
T5 sequence (P23786 whole entry): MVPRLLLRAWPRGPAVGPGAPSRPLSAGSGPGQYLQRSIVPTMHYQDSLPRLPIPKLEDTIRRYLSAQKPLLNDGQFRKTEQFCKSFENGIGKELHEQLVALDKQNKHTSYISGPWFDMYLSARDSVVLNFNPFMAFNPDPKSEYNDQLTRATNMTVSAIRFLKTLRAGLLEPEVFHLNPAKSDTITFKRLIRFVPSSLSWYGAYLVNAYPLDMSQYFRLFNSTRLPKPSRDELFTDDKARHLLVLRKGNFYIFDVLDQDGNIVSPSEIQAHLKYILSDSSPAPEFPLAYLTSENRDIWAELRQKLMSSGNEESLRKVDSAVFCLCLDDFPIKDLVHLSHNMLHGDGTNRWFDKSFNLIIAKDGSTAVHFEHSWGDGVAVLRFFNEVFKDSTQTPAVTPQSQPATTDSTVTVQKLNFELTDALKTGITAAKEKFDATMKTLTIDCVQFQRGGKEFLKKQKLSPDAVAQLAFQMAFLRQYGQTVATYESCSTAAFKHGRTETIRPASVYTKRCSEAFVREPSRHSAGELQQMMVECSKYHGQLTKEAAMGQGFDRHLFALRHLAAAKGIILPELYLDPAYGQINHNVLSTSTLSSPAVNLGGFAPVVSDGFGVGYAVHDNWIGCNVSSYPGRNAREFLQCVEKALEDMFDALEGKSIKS

[11] = target: T6, Carnitine O-palmitoyltransferase 1, liver isoform (Homo sapiens, UniProt P50416); experiment: Inhibition of human CPT1A
T6 sequence (P50416 whole entry): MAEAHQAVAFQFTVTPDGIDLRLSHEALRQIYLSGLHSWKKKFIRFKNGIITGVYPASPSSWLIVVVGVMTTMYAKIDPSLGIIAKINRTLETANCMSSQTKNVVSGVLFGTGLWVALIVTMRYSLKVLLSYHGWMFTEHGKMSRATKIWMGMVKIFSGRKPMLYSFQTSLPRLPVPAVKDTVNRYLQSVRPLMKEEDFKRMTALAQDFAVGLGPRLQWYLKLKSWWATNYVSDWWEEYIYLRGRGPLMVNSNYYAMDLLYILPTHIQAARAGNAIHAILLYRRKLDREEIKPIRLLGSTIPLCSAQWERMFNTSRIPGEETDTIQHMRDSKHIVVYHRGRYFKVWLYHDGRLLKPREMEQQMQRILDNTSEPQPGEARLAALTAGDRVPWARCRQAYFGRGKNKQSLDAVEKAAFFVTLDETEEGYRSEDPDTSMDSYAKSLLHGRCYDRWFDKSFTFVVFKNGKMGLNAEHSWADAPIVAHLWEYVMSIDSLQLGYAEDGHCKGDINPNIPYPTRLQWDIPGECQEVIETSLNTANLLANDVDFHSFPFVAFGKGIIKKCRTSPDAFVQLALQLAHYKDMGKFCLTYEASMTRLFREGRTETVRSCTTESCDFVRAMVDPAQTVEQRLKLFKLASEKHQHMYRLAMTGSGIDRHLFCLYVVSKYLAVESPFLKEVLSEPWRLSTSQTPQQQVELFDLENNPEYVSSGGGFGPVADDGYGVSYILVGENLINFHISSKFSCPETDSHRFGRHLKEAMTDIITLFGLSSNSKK

[12] = Inhibition of human FAO
[13] = Inhibition of rat FAO
[14] = target: T6, Carnitine O-palmitoyltransferase 1, liver isoform; experiment: Inhibition of CPT1A
[15] = target: T3, Carnitine O-palmitoyltransferase 1, muscle isoform; experiment: Inhibition of CPT1B

SMILES	IC50 [6]	IC50 [7]	IC50 [10]	IC50 [11]	further results
CCCCCCCCCC(=O)O[C@@H](CC(=O)[O-])C[N+](C)(C)C	–	–	–	–	IC50 [1]: 5 µM
CCCCCCOc1cccc(OCCCCNC(=O)N[C@H](CC(=O)[O-])C[P+](C)(C)C)c1	–	–	–	–	IC50 [2]: 0.12 µM; CMC [3]: 0.55 mM; IC50 [4]: 57.3 µM; Activity [5]: 30%
O=C(O)c1ccc(NC(=O)c2cccc(NS(=O)(=O)c3ccc(Cl)c(Cl)c3)c2)cc1	28.5 µM	6.4 µM	–	–	–
CCCCCCCCCCCCCCCC1(O)C[N+](C)(C)CC(CC(=O)[O-])O1 (stereo in doubt; (-)-27)	–	–	–	–	IC50 [8]: 15.5 µM; IC50 [9]: 6.7 µM
O=C(COc1ccccc1)N1CCCC[C@@H]1c1nc(-c2ccccn2)cs1	30.7 µM	> 100 µM	4.8 µM	0.02 µM	–
O=C(O)[C@@]1(CCCCCCOc2ccccc2)CO1 [DECHLOROETOMOXIR]	–	–	–	–	IC50 [12]: 1.8 µM; IC50 [13]: 4.4 µM
COc1ccc(-c2noc([C@H]3CCCCN3C(=O)COc3ccccc3)n2)cc1	> 100 µM	> 100 µM	–	0.065 µM	–
COc1ccc(Cl)cc1S(=O)(=O)N1CCc2ccc(C(=O)Nc3ccc(C(=O)O)cc3)cc21	3.2 µM	> 100 µM	0.74 µM	0.021 µM	–
O=C(O)C(=O)c1ccc(OCCOc2ccc3ccccc3c2)s1	> 100 µM	0.16 µM	4.7 µM	2.4 µM	IC50 [12]: 25.5 µM; IC50 [13]: > 100 µM
CCCCCCCC[C@H]1OC(=O)C(C)=C1C(=O)O	–	–	–	–	IC50 [12]: 77 µM; IC50 [13]: > 100 µM
CCCCCCCCCCCNS(=O)(=O)N[C@H](CC(=O)[O-])C[N+](C)(C)C	–	–	–	–	IC50 [2]: 0.8 µM; IC50 [4]: 5.8 µM
N[C@H](C(=O)O)c1ccc(O)cc1 [OXFENICINE]	–	> 100 µM	> 100 µM	> 100 µM	IC50 [12]: > 100 µM; IC50 [13]: > 100 µM
CCCCCCCCCCCCCCCC(=O)O[C@@H](CC(=O)[O-])C[N+](C)(C)C	–	–	–	–	IC50 [1]: 35 µM
COc1ccc(Cl)cc1S(=O)(=O)N1CC(C(=O)O)Oc2ccc(C(=O)Nc3cccc(F)c3)cc21 (stereo not drawn)	> 100 µM	3.4 µM	> 100 µM	–	–
O=C(NCc1cccs1)c1nn(Cc2cccc(C(F)(F)F)c2)c2ccccc12	> 100 µM	> 100 µM	–	0.026 µM	–
COc1ccc(C)cc1S(=O)(=O)N1CCCc2ccc(C(=O)Nc3ccc(CC(=O)O)cc3)cc21	16.7 µM	3.5 µM	2.8 µM	0.16 µM	–
CCCCCCCC[C@H]1OC(=O)C(CSCCNC(=O)CCNC(=O)[C@H](O)C(C)(C)COP(=O)(O)OP(=O)(O)OC[C@H]2O[C@@H](n3cnc4c(N)ncnc43)[C@H](O)[C@@H]2OP(=O)(O)O)[C@@H]1C(=O)O (stereo partly drawn)	–	–	–	–	IC50 [14]: 0.24 µM; IC50 [15]: 0.36 µM
CCCCCCCC(=O)O[C@@H](CC(=O)[O-])C[N+](C)(C)C	–	–	–	–	IC50 [1]: 35 µM
O=C(O)C1(C(F)(F)CCCCCOc2ccc(Cl)cc2)CO1 (stereo not drawn)	–	–	–	–	IC50 [14]: 0.25 µM; IC50 [15]: > 50 µM
